Assay results from patent publication US20260356851A1, “TRICYCLIC COMPOUNDS AND USES THEREOF” (HUTCHMED LIMITED, priority 2023, published 2026).

Legend:
Type in all cases: cell-based
[1] = target: T1, pERK1/2 (Thr202/Tyr204), NCI-1H358 (KRAS G12C) (Homo sapiens, UniProt P01116, G12C); test: Assay of intracellular pERK1/2 (Thr202/Tyr204) phosphorylation in NCI-H358 cells (KRAS G12C); conditions: pERK1/2, 2 days, read-out: NCI-H358 (KRAS G12C) IC50
T1 construct: pERK1/2 HTRF read-out
Outline: (§1)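 Cells (10000-12000/well) exposed to 3-fold compound dilutions for 2 days at 37 °C, then lysed; pERK1/2 (Thr202/Tyr204) measured by HTRF with d2 and cryptate antibodies, 665/615 nm ratio.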

[2] = target: T2, pERK1/2 (Thr202/Tyr204), PANC-1 (KRAS G121D) (Homo sapiens, UniProt P01116, G12D); test: Assay of intracellular pERK1/2 (Thr202/Tyr204) phosphorylation in PANC-1 cells (KRAS G12D); conditions: pERK1/2, 2 days, read-out: PANC-1 (KRAS G12D) IC50
T2 construct: pERK1/2 HTRF read-out
T2 sequence (P01116 1-188 isoform P01116-2 G12D): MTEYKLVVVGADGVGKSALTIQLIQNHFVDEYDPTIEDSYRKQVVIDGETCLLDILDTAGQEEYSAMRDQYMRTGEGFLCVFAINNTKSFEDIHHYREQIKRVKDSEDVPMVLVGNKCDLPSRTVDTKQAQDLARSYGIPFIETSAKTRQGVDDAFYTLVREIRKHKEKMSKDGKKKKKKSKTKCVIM
Outline: as §1

[3] = target: T3, pERK1/2 (Thr202/Tyr204), NCI-1H441 (KRAS G12V) (Homo sapiens, UniProt P01116, G12V); test: Assay of intracellular pERK1/2 (Thr202/Tyr204) phosphorylation in NCI-H441 cells (KRAS G12V); conditions: pERK1/2, 2 days, read-out: NCI-H441 (KRAS G12V) IC50
T3 construct: pERK1/2 HTRF read-out
T3 sequence (P01116 1-188 isoform P01116-2 G12V): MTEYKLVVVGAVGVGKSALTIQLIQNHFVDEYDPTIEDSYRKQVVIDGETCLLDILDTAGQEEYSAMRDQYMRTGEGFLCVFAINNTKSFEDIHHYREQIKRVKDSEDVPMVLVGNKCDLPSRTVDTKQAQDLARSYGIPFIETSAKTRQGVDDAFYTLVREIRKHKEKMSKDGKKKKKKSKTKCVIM
Outline: as §1

T1 sequence (P01116 1-188 isoform P01116-2 G12C): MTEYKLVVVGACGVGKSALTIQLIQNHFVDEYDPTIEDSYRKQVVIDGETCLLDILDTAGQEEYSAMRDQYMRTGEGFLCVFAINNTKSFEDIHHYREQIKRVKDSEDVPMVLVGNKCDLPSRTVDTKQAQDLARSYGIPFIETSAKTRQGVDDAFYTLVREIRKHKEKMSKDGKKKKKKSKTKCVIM

| SMILES | IC50 [1] [nM] | IC50 [2] [nM] | IC50 [3] [nM] |
| --- | --- | --- | --- |
| CC(c1cccnc1N)N1CCOc2nc(-c3cc(N)cc(Cl)c3C(F)(F)F)c(F)c3nc(OC[C@@H]4CCCN4C)nc1c23 (single isomer, unassigned) [Compound 99, 3-((R or S)-1-(5-(5-amino-3-chloro-2-(trifluoromethyl)phenyl)-4-fluoro-2-(((S)-1-methylpyrrolidin-2-yl)methoxy)-8,9-dihydro-10H-7-oxa-1,3,6,10-tetraazacyclohepta[de]naphthalen-10-yl)ethyl)pyridin-2-amine] | 27 | > 100 | 33 |
| Cc1cc(N)cc(-c2nc3c4c(nc(OC[C@]56CCCN5[C@@H](CO)CC6)nc4c2F)N([C@H](C)c2cccnc2N)CCO3)c1C(F)(F)F (single isomer, unassigned) [Compound 100, ((3R,7aR)-7a-(((5-(5-amino-3-methyl-2-(trifluoromethyl)phenyl)-10-((R or S)-1-(2-aminopyridin-3-yl)ethyl)-4-fluoro-9,10-dihydro-8H-7-oxa-1,3,6,10-tetraazacyclohepta[de]naphthalen-2-yl)oxy)methyl)hexahydro-1H-pyrrrolizin-3-yl)methanol] | 93 | > 100 | > 100 |
| Cc1cc(N)cc(-c2nc3c4c(nc(OC[C@]56CCCN5[C@@H](CO)CC6)nc4c2F)N(C(C)c2cccnc2N)CCO3)c1C(F)(F)F (single isomer, unassigned) [Compound 101, ((3R,7aR)-7a-(((5-(5-amino-3-methyl-2-(trifluoromethyl)phenyl)-10-((R or S)-1-(2-aminopyridin-3-yl)ethyl)-4-fluoro-9,10-dihydro-8H-7-oxa-1,3,6,10-tetraazacyclohepta[de]naphthalen-2-yl)oxy)methyl)hexahydro-1H-pyrrolizin-3-yl)methanol] | > 100 | > 100 | > 100 |
| [2H]C([2H])(Oc1nc2c3c(nc(-c4cc(N)cc(C)c4C(F)(F)F)c(F)c3n1)OCCN2C(C)c1cccnc1N)[C@@H]1CCC([2H])([2H])N1C([2H])([2H])[2H] (single isomer, unassigned) [Compound 102, 3-((R or S)-1-(5-(5-amino-3-methyl-2-(trifluoromethyl)phenyl)-4-fluoro-2-(((S)-1-(methyl-d3)pyrrolidin-2-yl-5,5-d2)methoxy-d2)-8,9-dihydro-10H-7-oxa-1,3,6,10-tetraazacyclohepta[de]naphthalen-10-yl)ethyl)pyridin-2-amine] | 0.8 | 38 | 2 |
| [2H]C([2H])(Oc1nc2c3c(nc(-c4cc(N)cc(C)c4C(F)(F)F)c(F)c3n1)OCCN2C(C)c1cccnc1N)[C@@H]1CCC([2H])([2H])N1C([2H])([2H])[2H] (single isomer, unassigned) [Compound 103, 3-((R or S)-1-(5-(5-amino-3-methyl-2-(trifluoromethyl)phenyl)-4-fluoro-2-(((S)-1-(methyl-d3)pyrrolidin-2-yl-5,5-d2)methoxy-d2)-8,9-dihydro-10H-7-oxa-1,3,6,10-tetraazacyclohepta[de]naphthalen-10-yl)ethyl)pyridin-2-amine] | 60 | > 100 | > 100 |
| Cc1cc(N)cc(-c2nc3c4c(nc(OC[C@@H]5CCCN5)nc4c2F)N(C(C)c2cccnc2N)CCO3)c1C(F)(F)F (single isomer, unassigned) [Compound 106] | > 100 | > 100 | > 100 |
| Cc1cc(N)cc(-c2nc3c4c(nc(N5CCC[C@H]5CO)nc4c2F)N(C(C)c2cccnc2N)CCO3)c1C(F)(F)F (single isomer, unassigned) [Compound 107] | 89 | > 100 | > 100 |
| Cc1cc(N)cc(-c2nc3c4c(nc(OC[C@H]5CCCN5C)nc4c2F)N(C(C)c2cccnc2N)CCO3)c1C(F)(F)F (single isomer, unassigned) [Compound 109, 3-((R or S)-1-(5-(5-amino-3-methyl-2-(trifluoromethyl)phenyl)-4-fluoro-2-(((R)-1-methylpyrrolidin-2-yl)methoxy)-8,9-dihydro-10H-7-oxa-1,3,6,10-tetraazacyclohepta[de]naphthalen-10-yl)ethyl)pyridin-2-amine] | 0.9 | 41 | 2 |
| Cc1cc(N)cc(-c2nc3c4c(nc(OC[C@H]5CCCN5C)nc4c2F)N(C(C)c2cccnc2N)CCO3)c1C(F)(F)F (single isomer, unassigned) [Compound 110, 3-((R or S)-1-(5-(5-amino-3-methyl-2-(trifluoromethyl)phenyl)-4-fluoro-2-(((R)-1-methylpyrrolidin-2-yl)methoxy)-8,9-dihydro-10H-7-oxa-1,3,6,10-tetraazacyclohepta[de]naphthalen-10-yl)ethyl)pyridin-2-amine] | > 100 | > 100 | > 100 |
| [2H]C1([2H])CC[C@@]2(C([2H])([2H])Oc3nc4c5c(nc(-c6cc(N)cc(C)c6C(F)(F)F)c(F)c5n3)OCCN4C(C)c3cccnc3N)C[C@@H](F)CN12 (single isomer, unassigned) [Compound 115, 3-((R or S)-1-(5-(5-amino-3-methyl-2-(trifluoromethyl)phenyl)-4-fluoro-2-(((2R,7aS)-2-fluorotetrahydro-1H-pyrrolizin-7a(5H)-yl-5,5-d2)methoxy-d2)-8,9-dihydro-10H-7-oxa-1,3,6,10-tetraazacyclohepta[de]naphthalen-10-yl)ethyl)pyridin-2-amine] | 0.2 | 0.9 | 0.2 |
| [2H]C1([2H])CC[C@@]2(C([2H])([2H])Oc3nc4c5c(nc(-c6cc(N)cc(C)c6C(F)(F)F)c(F)c5n3)OCCN4C(C)c3cccnc3N)C[C@@H](F)CN12 (single isomer, unassigned) [Compound 116, 3-((R or S)-1-(5-(5-amino-3-methyl-2-(trifluoromethyl)phenyl)-4-fluoro-2-(((2R,7aS)-2-fluorotetrahydro-1H-pyrrolizin-7a(5H)-yl-5,5-d2)methoxy-d2)-8,9-dihydro-10H-7-oxa-1,3,6,10-tetraazacyclohepta[de]naphthalen-10-yl)ethyl)pyridin-2-amine] | 4 | 23 | 9 |
| Cc1cc(N)cc(-c2nc3c4c(nc(OCC5CCOCC5)nc4c2F)N(C(C)c2cccnc2N)CCO3)c1C(F)(F)F (single isomer, unassigned) [Compound 117, (R or S)-3-(1-(5-(5-amino-3-methyl-2-(trifluoromethyl)phenyl)-4-fluoro-2-((tetrahydro-2H-pyran-4-yl)methoxy)-8,9-dihydro-10H-7-oxa-1,3,6,10-tetraazacyclohepta[de]naphthalen-10-yl)ethyl)pyridin-2-amine] | 26 | > 100 | 36 |
| Cc1cc(N)cc(-c2nc3c4c(nc(OCC5CCOCC5)nc4c2F)N([C@@H](C)c2cccnc2N)CCO3)c1C(F)(F)F (single isomer, unassigned) [Compound 118, (R or S)-3-(1-(5-(5-amino-3-methyl-2-(trifluoromethyl)phenyl)-4-fluoro-2-((tetrahydro-2H-pyran-4-yl)methoxy)-8,9-dihydro-10H-7-oxa-1,3,6,10-tetraazacyclohepta[de]napthalen-10-yl)ethyl)pyridin-2-amine] | > 100 | > 100 | > 100 |
| [2H]C1([2H])CC[C@@]2(C([2H])([2H])Oc3nc4c5c(nc(-c6cc(N)c(F)c(C)c6C(F)(F)F)c(F)c5n3)OCCN4C(C)c3cccnc3N)C[C@@H](F)CN12 (single isomer, unassigned) [Compound 124, 3-((R or S)-1-(5-(5-amino-4-fluoro-3-methyl-2-(trifluoromethyl)phenyl)-4-fluoro-2-(((2R,7aS)-2-fluorotetrahydro-1H-pyrrolizin-7a(5H)-yl-5,5-d2)methoxy-d2)-8,9-dihydro-10H-7-oxa-1,3,6,10-tetraazacyclohepta[de]naphthalen-10-yl)ethyl)pyridin-2-amine] | 0.1 | 1 | 0.3 |
| [2H]C1([2H])CC[C@@]2(C([2H])([2H])Oc3nc4c5c(nc(-c6cc(N)c(F)c(C)c6C(F)(F)F)c(F)c5n3)OCCN4[C@@H](C)c3cccnc3N)C[C@@H](F)CN12 (single isomer, unassigned) [Compound 125, 3-((R or S)-1-(5-(5-amino-4-fluoro-3-methyl-2-(trifluoromehtyl)phenyl)-4-fluoro-2-(((2R,7aS)-2-fluorotetrahydro-1H-pyrrolizin-7a(5H)-yl-5,5-d2)methoxy-d2)-8,9-dihydro-10H-7-oxa-1,3,6,10-tetraazacyclohepta[de]naphthalen-10-yl)ethyl)pyridin-2-amine] | 12 | 57 | 40 |
| Cc1cc(N)cc(-c2nc3c4c(nc(OC[C@@]56CCCN5C[C@H](F)C6)nc4c2F)N(C(C)c2cccnn2)CCO3)c1C(F)(F)F (single isomer, unassigned) [Compound 127, 3-(4-fluoro-2-(((2R,7aS)-2-fluorotetrahydro-1H-pyrrolizin-7a(5H)-yl)methoxy)-10-((R or S)-1-(pyridazin-3-yl)ethyl)-9,10-dihydro-8H-7-oxa-1,3,6,10-tetraazacyclohepta[de]naphthalen-5-yl)-5-methyl-4-(trifluoromethyl)aniline] | > 100 | > 100 | > 100 |
